Assay results as given in BigSolDB 2.1.

C[C@H](CCC(=O)O)[C@H]1CC[C@H]2[C@@H]3CC[C@@H]4C[C@H](O)CC[C@]4(C)[C@H]3C[C@H](O)[C@]12C
solubility (mole fraction)
Settings | in 2-pentanone | in cyclohexanone | in ethyl acetate | in furfural | in gamma-valerolactone | in methyl acetate | in n-butanol | in n-butyl acetate | in n-hexanol | in n-octanol
283.15 K | 0.000911 | 0.00147 | 0.000187 | 0.000227 | 0.000904 | 0.000224 | 0.00134 | 0.000222 | 0.00773 | 0.00898
293.15 K | 0.00145 | 0.00214 | 0.000304 | 0.000293 | 0.00147 | 0.000382 | 0.00159 | 0.000275 | 0.00902 | 0.0116
303.15 K | 0.00198 | 0.00302 | 0.000448 | 0.000478 | 0.00217 | 0.00071 | 0.00189 | 0.000415 | 0.0102 | 0.0135
313.15 K | 0.00286 | 0.00416 | 0.000771 | 0.000599 | 0.00304 | 0.00107 | 0.00246 | 0.000609 | 0.0125 | 0.016
323.15 K | 0.00378 | 0.00567 | 0.0011 | 0.000913 | 0.00509 | 0.0016 | 0.00275 | 0.000875 | 0.0153 | 0.0192
333.15 K | 0.0049 | 0.00744 | 0.00147 | 0.0014 | 0.00757 | – | 0.00315 | 0.00127 | 0.0174 | 0.0232

C[C@H](CCC(=O)O)[C@H]1CC[C@H]2[C@@H]3[C@H](O)C[C@@H]4C[C@H](O)CC[C@]4(C)[C@H]3C[C@H](O)[C@]12C
solubility (mole fraction)
Settings | in 2-pentanone | in cyclohexanone | in ethyl acetate | in furfural | in gamma-valerolactone | in methyl acetate | in n-butanol | in n-butyl acetate | in n-hexanol | in n-octanol
283.15 K | 0.00141 | 0.00753 | 0.000154 | 3.55e-05 | 0.000822 | 7.59e-05 | 0.00219 | 0.000224 | 0.0156 | 0.0154
293.15 K | 0.00164 | 0.00842 | 0.000242 | 7.5e-05 | 0.00154 | 0.000128 | 0.00245 | 0.000284 | 0.0166 | 0.0171
303.15 K | 0.00206 | 0.00952 | 0.000392 | 0.000127 | 0.00258 | 0.000232 | 0.0027 | 0.000378 | 0.0182 | 0.0183
313.15 K | 0.00247 | 0.0106 | 0.000536 | 0.000197 | 0.00412 | 0.000489 | 0.00296 | 0.000492 | 0.0202 | 0.0201
323.15 K | 0.00299 | 0.012 | 0.000713 | 0.000349 | 0.00604 | 0.000811 | 0.00337 | 0.000613 | 0.0223 | 0.0222
333.15 K | 0.00345 | 0.0137 | 0.000942 | 0.000563 | 0.00978 | – | 0.00389 | 0.000765 | 0.0236 | 0.0242
